Target: T1, mGluR5 receptors (Rattus norvegicus, UniProt P31424)
T1 construct: Primary astrocyte cultures are prepared from cortices of newborn rats; endogenous in cells; host or cells: primary cortical astrocytes from Sprague-Dawley rat pups (2-4 d old)
Assay: Cytosolic calcium studies with astrocytes (FLIPR), functional assay of mGluR5 receptors
Type: cell-based
Settings: for EC50: Table A1, positive modulators, fixed concentration of quisqualate (normally 10-30 nM), read-out: rEC50
Procedure, shortened: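 Rat cortical primary astrocytes at 14-15 DIV, loaded with Ca-sensitive dye for 2 h at RT, pH 7.3 buffer; FLIPR fluorescence after L-quisqualate (100 nM), antagonists pre-incubated 10 min. PAMs: quisqualate curves ± 10 µM modulator, or modulator curves at fixed 10-30 nM quisqualate. Max-min responses as % control, logistic fit.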

[1] = Table A3 (SAMs / very weak PAMs), quisqualate EC50 shift with 10 µM modulator
[2] = Table A1, left shift of quisqualate EC50 in the presence and absence of 10 µM modulator

T1 sequence (P31424 21-1203): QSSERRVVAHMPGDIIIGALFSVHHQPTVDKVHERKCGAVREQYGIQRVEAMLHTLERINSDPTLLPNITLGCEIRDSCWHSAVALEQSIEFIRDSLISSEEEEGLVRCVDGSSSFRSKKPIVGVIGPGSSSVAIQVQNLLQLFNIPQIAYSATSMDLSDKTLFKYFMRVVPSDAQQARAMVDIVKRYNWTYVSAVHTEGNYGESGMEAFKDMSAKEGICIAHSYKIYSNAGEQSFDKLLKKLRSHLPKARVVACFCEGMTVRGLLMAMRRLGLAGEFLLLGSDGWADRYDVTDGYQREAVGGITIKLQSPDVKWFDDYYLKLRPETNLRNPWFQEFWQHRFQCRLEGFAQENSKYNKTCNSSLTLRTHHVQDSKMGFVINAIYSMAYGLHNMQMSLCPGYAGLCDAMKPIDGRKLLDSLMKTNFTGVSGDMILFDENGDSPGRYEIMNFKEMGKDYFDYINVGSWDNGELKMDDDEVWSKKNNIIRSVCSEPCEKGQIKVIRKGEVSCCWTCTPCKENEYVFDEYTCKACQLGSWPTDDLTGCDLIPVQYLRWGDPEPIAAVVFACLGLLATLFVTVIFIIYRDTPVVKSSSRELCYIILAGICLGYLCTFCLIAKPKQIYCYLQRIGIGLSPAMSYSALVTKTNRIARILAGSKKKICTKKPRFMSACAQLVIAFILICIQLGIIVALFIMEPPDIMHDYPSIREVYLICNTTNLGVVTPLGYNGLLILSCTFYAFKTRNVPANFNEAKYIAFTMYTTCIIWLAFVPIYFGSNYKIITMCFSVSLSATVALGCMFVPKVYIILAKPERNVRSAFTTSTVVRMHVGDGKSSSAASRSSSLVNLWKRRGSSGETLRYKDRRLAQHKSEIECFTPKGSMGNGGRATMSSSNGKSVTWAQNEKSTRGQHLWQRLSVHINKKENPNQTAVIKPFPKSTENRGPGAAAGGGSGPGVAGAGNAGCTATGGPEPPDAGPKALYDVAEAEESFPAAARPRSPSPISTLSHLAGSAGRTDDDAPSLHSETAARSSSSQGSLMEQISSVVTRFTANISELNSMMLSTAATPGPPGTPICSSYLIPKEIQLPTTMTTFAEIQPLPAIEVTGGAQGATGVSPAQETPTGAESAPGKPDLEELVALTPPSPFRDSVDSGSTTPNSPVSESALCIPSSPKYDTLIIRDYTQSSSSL

| SMILES | r left shift [1] | r left shift [2] | EC50 [nM] |
| --- | --- | --- | --- |
| CCCN1CCO[C@@H]2c3cc(C#Cc4cccc(C)c4)cnc3CC[C@@H]21 (racemic) [Example 21, (rac)-cis-4-Propyl-9-(m-tolylethynyl)-3,4,4a,5,6,10b-hexahydro-2H-[1,4]oxazino[2,3-f]quinoline] | 1.9-fold |  |  |
| CCCN1CC2(CCCc3ncc(C#Cc4cccc(C)c4)cc32)OC1=O (racemic) [Example 64, (rac)-3-Propyl-3'-(m-tolylethynyl)-7',8'-dihydro-6'H-spiro[oxazolidine-5,5'-quinolin]-2-one] | 0.9-fold |  |  |
| CCCN1CC2(CCCc3ncc(C#Cc4cccc(F)c4)cc32)OC1=O (racemic) [Example 66, (rac)-3'-((3-Fluorophenyl)ethynyl)-3-propyl-7',8'-dihydro-6'H-spiro[oxazolidine-5,5'-quinolin]-2-one] | 1.3-fold |  |  |

The next lines start with the values.

| r left shift [1] | r left shift [2] | EC50 [nM] | SMILES |
| --- | --- | --- | --- |
| 0.8-fold |  |  | COC(=O)N1CC[C@H]2CCc3ncc(C#Cc4ccccc4)cc3[C@H]21 (racemic) [Example 29, (rac)-cis-Methyl 8-(phenylethynyl)-2,3,3a,4,5,9b-hexahydro-1H-pyrrolo[2,3-f]quinoline-1-carboxylate] |
| 4.4-fold | 4.4-fold | 12.5 | COC1CCCc2ncc(C#Cc3ccccc3)cc21 (single isomer, unassigned) [Example 2, 5-Methoxy-3-(phenylethynyl)-5,6,7,8-tetrahydroquinoline] |
| 3.5-fold | 3.5-fold | 67 | CCCN1CCO[C@@H]2c3cc(C#Cc4ccccc4)cnc3CC[C@@H]21 (single isomer, unassigned) [Example 17, cis-9-(Phenylethynyl)-4-propyl-3,4,4a,5,6,10b-hexahydro-2H-[1,4]oxazino[2,3-f]quinoline] |
| 1.3-fold |  |  | CC(C)C(=O)N1CCc2ncc(C#Cc3ccccc3)cc2C1 [Example 33, 2-Methyl-1-(3-(phenylethynyl)-7,8-dihydro-1,6-naphthyridin-6(5H)-yl)propan-1-one] |
| 1.6-fold |  |  | CCOC(=O)N1CCc2ncc(C#Cc3ccccc3)cc2C1 [Example 40, Ethyl 3-(phenylethynyl)-7,8-dihydro-1,6-naphthyridine-6(5H)-carboxylate] |
